Results from PubChem BioAssay (NCI).
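Growth conditions: 96-well plates. Treatment: test compound, 48 hours, 5 concentrations. Analysis: linear interpolation between bracketing concentrations; unreached endpoints set to highest concentration. Abbreviation: GI50, concentration required for 50% inhibition of growth. TGI: concentration producing complete growth inhibition.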

How the values were obtained:
Assay in all cases: growth of human tumour cells (NCI), 48 h
[1] = system: HCC-2998 colon
[2] = system: HOP-62 NSCLC
[3] = system: HOP-92 NSCLC
[4] = system: NCI/ADR-RES ovarian
[5] = system: OVCAR-4 ovarian
[6] = system: RPMI-8226 leukemia
[7] = system: UO-31 renal
[8] = system: EKVX NSCLC

CCCCCCc1cc2cc(-c3nc4ccccc4[nH]3)c(=Nc3ccccc3C)oc2cc1O
GI50 [1]: 22.2 µM | TGI [1]: > 77.3 µM | GI50 [2]: 1.95 µM | TGI [2]: 4.57 µM | GI50 [3]: 0.492 µM | TGI [3]: 5.12 µM | GI50 [4]: 4.24 µM | TGI [4]: 22.7 µM | GI50 [5]: 1.69 µM | TGI [5]: 3.37 µM | GI50 [6]: 2.47 µM | TGI [6]: 7.86 µM | GI50 [7]: 1.64 µM | TGI [7]: 4.49 µM

O=[N+]([O-])c1ccccc1N=Nc1c(O)[nH]c2ccc(Br)cc12
TGI [8]: > 59 µM | TGI [1]: 34.1 µM | TGI [2]: 28.3 µM | TGI [4]: 40.6 µM | TGI [5]: > 59 µM | TGI [6]: > 68.6 µM | TGI [7]: 44.7 µM

Clc1ccc(/C=C/c2cc(N3CCOCC3)c3cc(Cl)c(Cl)cc3n2)cc1
GI50 [1]: > 100 µM | TGI [1]: > 100 µM | GI50 [2]: > 100 µM | TGI [2]: > 100 µM | GI50 [3]: > 100 µM | TGI [3]: > 100 µM | GI50 [4]: > 100 µM | TGI [4]: > 100 µM | GI50 [5]: > 100 µM | TGI [5]: > 100 µM | GI50 [6]: 0.311 µM | TGI [6]: 1.09 µM | GI50 [7]: 0.71 µM | TGI [7]: > 45.7 µM

O=C(Nc1ccccc1)c1nn(-c2cc(S(=O)(=O)O)c([N+](=O)[O-])cc2Cl)[n+](-c2cc(S(=O)(=O)[O-])c([N+](=O)[O-])cc2Cl)n1
TGI [8]: > 100 µM | TGI [1]: > 100 µM | TGI [2]: > 100 µM | TGI [4]: > 100 µM | TGI [5]: > 100 µM | TGI [6]: > 100 µM | TGI [7]: > 100 µM

C=C(C)C1Cc2c(cc(OC)c3c(=O)c4cccc(O)c4oc23)O1 (centres undefined)
TGI [8]: > 100 µM | TGI [1]: > 100 µM | TGI [2]: 36.5 µM | TGI [4]: > 100 µM | TGI [5]: 42.4 µM | TGI [7]: 39 µM

Cn1cc(C2=C(c3cccc(N)c3)C(=O)NC2=O)c2ccccc21
GI50 [1]: > 25 µM | TGI [1]: > 25 µM | GI50 [2]: 9.5 µM | TGI [2]: > 25 µM | GI50 [3]: > 25 µM | TGI [3]: > 25 µM | GI50 [4]: > 19.7 µM | TGI [4]: > 25 µM | GI50 [5]: > 25 µM | TGI [5]: > 25 µM | GI50 [6]: > 21.4 µM | TGI [6]: > 25 µM | GI50 [7]: 14.1 µM | TGI [7]: > 25 µM

Cc1cc(NCCCNc2ccnc3cc(Cl)ccc23)nc(N2CCN(C)CC2)n1
GI50 [1]: 2.36 µM | TGI [1]: 11.1 µM | GI50 [2]: 4.79 µM | TGI [2]: 21 µM | GI50 [3]: 15.2 µM | TGI [3]: 37.4 µM | GI50 [4]: 17.5 µM | TGI [4]: 61.7 µM | GI50 [5]: 4.03 µM | TGI [5]: 44.5 µM | GI50 [6]: 2.56 µM | TGI [6]: 7.45 µM | GI50 [7]: 4.05 µM | TGI [7]: 24 µM

COc1cc(-c2nc3sccn3c2-c2ccnc(NCCNS(=O)(=O)c3ccc(Cl)cc3)n2)ccc1F
GI50 [8]: 5.04 µM | TGI [8]: > 100 µM | GI50 [1]: 5.82 µM | TGI [1]: > 100 µM | GI50 [2]: 5.01 µM | TGI [2]: > 100 µM | GI50 [4]: 2.89 µM | TGI [4]: > 100 µM | GI50 [5]: 3.72 µM | TGI [5]: > 100 µM | GI50 [7]: 2.72 µM | TGI [7]: > 100 µM

COC(=O)C1=C(C)NC(C)=C(C(=O)OC)C1/C=C(\Cl)c1ccc(Cl)c(Cl)c1
GI50 [8]: 10.7 µM | TGI [8]: 24.9 µM | GI50 [1]: 17.3 µM | TGI [1]: 31.1 µM | GI50 [2]: 16.3 µM | TGI [2]: 29.8 µM | GI50 [4]: 16.4 µM | TGI [4]: 30.8 µM | GI50 [5]: 10.8 µM | TGI [5]: 26.6 µM | GI50 [6]: 1.8 µM | TGI [6]: 13.7 µM | GI50 [7]: 13.9 µM | TGI [7]: 27.1 µM

CCOC(=O)/C(=N\OC)C(O)C(F)(F)F (centres undefined)
TGI [8]: > 100 µM | TGI [1]: > 100 µM | TGI [2]: > 100 µM | TGI [4]: > 100 µM | TGI [6]: > 100 µM | TGI [7]: > 100 µM

Nc1ncnc2c1ncn2Cc1ccc(C23CC4CC(CC(C4)C2)C3)c(OCc2cc(F)c(F)cc2F)c1
GI50 [1]: 6.26 µM | TGI [1]: 57.8 µM | GI50 [2]: 6.98 µM | TGI [2]: 18.9 µM | GI50 [3]: 4.63 µM | TGI [3]: 32.7 µM | GI50 [4]: 6.49 µM | TGI [4]: > 100 µM | GI50 [5]: 90.8 µM | TGI [5]: > 100 µM

Cc1nc(-c2ccccc2)c(Cc2ccccc2O)c(=O)[nH]1
TGI [8]: > 100 µM | TGI [2]: > 100 µM | TGI [3]: > 100 µM | TGI [4]: > 100 µM | TGI [5]: > 100 µM | TGI [6]: > 100 µM | TGI [7]: > 100 µM

Cc1cc(Cl)cc2c(N=Nc3ccccc3[N+](=O)[O-])c(O)[nH]c12
TGI [8]: > 100 µM | TGI [1]: > 100 µM | TGI [2]: > 100 µM | TGI [3]: > 100 µM | TGI [5]: > 100 µM | TGI [6]: > 100 µM | TGI [7]: > 100 µM

COc1cc2c(cc1O)-c1c(cnn1-c1ccc([N+](=O)[O-])cc1)CCC2
TGI [8]: 80.5 µM | TGI [2]: > 100 µM | TGI [3]: > 100 µM | TGI [4]: 42.7 µM | TGI [5]: > 100 µM | TGI [6]: 16.6 µM

O=c1c2ccccc2c(Br)c(Br)c2ccccc12
GI50 [8]: 14.2 µM | TGI [8]: 64.3 µM | GI50 [1]: 17.3 µM | TGI [1]: 35.8 µM | GI50 [2]: 21 µM | TGI [2]: 41.9 µM | GI50 [4]: 16.5 µM | TGI [4]: 40.6 µM | GI50 [5]: 9.24 µM | TGI [5]: 80.9 µM | GI50 [6]: 2.51 µM | TGI [6]: 5.84 µM | GI50 [7]: 1.9 µM | TGI [7]: 3.44 µM

Nc1nc(N)c(Cn2ccnc2)c(=O)[nH]1
TGI [8]: > 100 µM | TGI [2]: > 100 µM | TGI [3]: > 100 µM | TGI [4]: > 100 µM | TGI [5]: > 100 µM | TGI [6]: > 100 µM | TGI [7]: > 100 µM
